Columns and labels:
Adenosine A2 receptor [1] = target: T1, Adenosine A2 receptor (UniProt P29275+P29274); details: Canis lupus familiaris
Description: Molar potency ratio (MPR) against adenosine A2 receptor of canine coronary artery

Adenosine A2 receptor [2] = target: T1, Adenosine A2 receptor; experiment: Acidic dissociation constant(pKa) against A2 adenosine receptor of coronary artery; format: protein assay; details: Canis lupus familiaris
[3] = Index of hydrophobicity (k'); format: ADME
Adenosine A2 receptor [4] = target: T1, Adenosine A2 receptor; experiment: Association constant against A2 adenosine receptor; format: protein assay; details: Canis lupus familiaris
Adenosine A2 receptor [5] = target: T1, Adenosine A2 receptor; experiment: Maximum increase in coronary flow, percent of control, and nucleoside concentration in coronary plasma at 28 uM; format: functional; details: Canis lupus familiaris
Adenosine A2 receptor [6] = target: T1, Adenosine A2 receptor; details: Canis lupus familiaris; remark: listed apart in the source
Description: Molar potency ratio (MPR) against A2 adenosine receptor of coronary artery

Adenosine A2 receptor [7] = target: T1, Adenosine A2 receptor; experiment: Maximum increase in coronary flow, percent of control, and nucleoside concentration in coronary plasma at 12 uM; format: functional; details: Canis lupus familiaris

T1 sequence (P29274 whole entry, looked up): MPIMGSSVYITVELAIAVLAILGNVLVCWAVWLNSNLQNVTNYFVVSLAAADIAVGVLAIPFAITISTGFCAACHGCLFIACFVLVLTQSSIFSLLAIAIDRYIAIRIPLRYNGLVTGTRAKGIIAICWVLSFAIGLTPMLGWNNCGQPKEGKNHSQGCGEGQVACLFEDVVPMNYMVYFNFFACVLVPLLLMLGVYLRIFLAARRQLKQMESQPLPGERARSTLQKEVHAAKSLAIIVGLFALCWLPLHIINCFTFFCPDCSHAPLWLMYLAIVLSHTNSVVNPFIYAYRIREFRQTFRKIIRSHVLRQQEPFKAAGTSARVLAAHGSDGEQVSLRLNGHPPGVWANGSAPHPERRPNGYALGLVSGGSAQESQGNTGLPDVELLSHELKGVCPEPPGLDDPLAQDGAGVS
T1 sequence (P29275 whole entry, looked up): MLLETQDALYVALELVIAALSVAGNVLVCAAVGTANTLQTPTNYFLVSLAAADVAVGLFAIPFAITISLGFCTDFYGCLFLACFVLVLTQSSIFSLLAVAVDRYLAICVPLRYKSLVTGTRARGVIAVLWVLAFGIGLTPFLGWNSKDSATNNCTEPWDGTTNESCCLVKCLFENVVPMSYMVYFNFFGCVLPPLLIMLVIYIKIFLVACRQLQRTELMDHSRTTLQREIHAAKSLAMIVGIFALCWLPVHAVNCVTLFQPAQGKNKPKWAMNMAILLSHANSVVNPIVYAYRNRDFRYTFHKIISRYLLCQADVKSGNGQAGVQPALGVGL

Row | SMILES | MPR (Adenosine A2 receptor [1]) | pka (Adenosine A2 receptor [2]) | k' [3] | K (Adenosine A2 receptor [4]) [M⁻¹] | Activity (Adenosine A2 receptor [5]) [%] | MPR (Adenosine A2 receptor [6]) | Activity (Adenosine A2 receptor [7]) [%]
1 | OC[C@H]1OC(n2cnc3c(Nc4ccc(Cl)cc4)ncnc32)[C@H](O)[C@@H]1O (some centres undefined) | 0.94 | 2.46 | 4.96 |  |  |  | 
2 | Cc1ccccc1CNc1ncnc2c1ncn2[C@@H]1O[C@H](CO)[C@@H](O)[C@H]1O | 1.8 | 3.22 | 2.76 |  |  |  | 
3 | Cc1ccc(CNc2ncnc3c2ncn3[C@@H]2O[C@H](CO)[C@@H](O)[C@H]2O)cc1 | 0.04 | 3.19 | 3.04 |  |  |  | 
4 | OC[C@H]1O[C@@H](n2cnc3c(Nc4ccccc4)ncnc32)[C@H](O)[C@@H]1O [N6-PHENYLADENOSINE] | 1.4 | 2.73 | 1.29 | 3160 |  |  | 
5 | Cc1ccc(CCNc2ncnc3c2ncn3C2O[C@H](CO)[C@@H](O)[C@H]2O)cc1 (some centres undefined) | 0.46 | 3.4 | 4.76 |  |  |  | 
6 | OC[C@H]1OC(n2cnc3c(NCCc4cccnc4)ncnc32)[C@H](O)[C@@H]1O (some centres undefined) | 3 | < 1 | 0.38 |  |  |  | 
7 | COc1ccc(Nc2ncnc3c2ncn3[C@@H]2O[C@H](CO)[C@@H](O)[C@H]2O)cc1 | 3.5 | 2.95 | 1.36 |  |  |  | 
8 | COc1cc(Nc2ncnc3c2ncn3C2O[C@H](CO)[C@@H](O)[C@H]2O)cc(OC)c1OC (some centres undefined) |  | 2.8 | 1.54 |  | 28 |  | 
9 | C[C@H](Cc1ccccc1)Nc1ncnc2c1ncn2[C@@H]1O[C@H](CO)[C@@H](O)[C@H]1O (stereo in doubt; 1) |  |  |  |  |  | 4.3 | 
10 | OC[C@H]1OC(n2cnc3c(Nc4ccccc4Cl)ncnc32)[C@H](O)[C@@H]1O (some centres undefined) | 0.42 | 2.76 | 2.36 |  |  |  | 
11 | OC[C@H]1OC(n2cnc3c(Nc4ccc(F)cc4)ncnc32)[C@H](O)[C@@H]1O (some centres undefined) | 1.5 | 2.65 | 1.68 | 3560 |  |  | 
12 | OC[C@H]1O[C@@H](n2cnc3c(NCCc4ccccc4)ncnc32)[C@H](O)[C@@H]1O | 2 | 3.57 | 1.77 |  |  |  | 
13 | OC[C@H]1OC(n2cnc3c(NCCc4ccccc4Cl)ncnc32)[C@H](O)[C@@H]1O (some centres undefined) | 0.67 | 3.27 | 3.64 | 32400 |  |  | 
14 | OC[C@H]1OC(n2cnc3c(Nc4ccccc4F)ncnc32)[C@H](O)[C@@H]1O (some centres undefined) | 0.91 | 2.39 | 1.48 |  |  |  | 
15 | COc1ccc(CNc2ncnc3c2ncn3[C@@H]2O[C@H](CO)[C@@H](O)[C@H]2O)cc1 |  | 3.06 | 1.66 |  |  | 0.04 | 
16 | OC[C@H]1OC(n2cnc3c(NCCc4ccc(Cl)cc4)ncnc32)[C@H](O)[C@@H]1O (some centres undefined) | 0.41 | 3.23 | 4.07 |  |  |  | 
17 | Cc1cc(C)cc(Nc2ncnc3c2ncn3C2O[C@H](CO)[C@@H](O)[C@H]2O)c1 (some centres undefined) |  |  | 6.43 |  |  |  | 4
18 | OC[C@H]1OC(n2cnc3c(NCCc4ccc(F)cc4)ncnc32)[C@H](O)[C@@H]1O (some centres undefined) | 2.1 | 3.32 | 2.39 | 10300 |  |  | 
19 | Cc1ccccc1CCNc1ncnc2c1ncn2C1O[C@H](CO)[C@@H](O)[C@H]1O (some centres undefined) | 0.67 | 3.32 | 4.52 |  |  |  | 
20 | Cc1cccc(Nc2ncnc3c2ncn3C2O[C@H](CO)[C@@H](O)[C@H]2O)c1 (some centres undefined) | 0.023 | 2.79 | 3.28 |  |  |  | 
21 | Cc1ccccc1Nc1ncnc2c1ncn2C1O[C@H](CO)[C@@H](O)[C@H]1O (some centres undefined) | 0.65 | 2.98 | 1.4 |  |  |  | 
22 | OC[C@H]1OC(n2cnc3c(Nc4cccc(Cl)c4)ncnc32)[C@H](O)[C@@H]1O (some centres undefined) | 0.2 | 2.61 | 5.05 |  |  |  | 
23 | OC[C@H]1OC(n2cnc3c(Nc4cccc(F)c4)ncnc32)[C@H](O)[C@@H]1O (some centres undefined) | 0.43 | 2.66 | 2.36 | 6360 |  |  | 
24 | OC[C@H]1OC(n2cnc3c(NCCc4ccncc4)ncnc32)[C@H](O)[C@@H]1O (some centres undefined) | 0.42 | < 1 | 0.32 |  |  |  | 
25 | COc1ccccc1Nc1ncnc2c1ncn2C1O[C@H](CO)[C@@H](O)[C@H]1O (some centres undefined) | 0.28 | 2.97 | 1.93 |  |  |  | 
26 | OC[C@H]1OC(n2cnc3c(NCCc4ccccc4F)ncnc32)[C@H](O)[C@@H]1O (some centres undefined) | 1.9 | 3.19 | 2.36 |  |  |  | 

Row | SMILES | MPR (Adenosine A2 receptor [1]) | pka (Adenosine A2 receptor [2]) | k' [3] | K (Adenosine A2 receptor [4]) [M⁻¹] | Activity (Adenosine A2 receptor [5]) [%] | MPR (Adenosine A2 receptor [6]) | Activity (Adenosine A2 receptor [7]) [%]
27 | OC[C@H]1O[C@@H](n2cnc3c(NCc4ccc(F)cc4)ncnc32)[C@H](O)[C@@H]1O | 0.36 | 3.32 | 1.57 |  |  |  | 
28 | OC[C@H]1OC(n2cnc3c(NC4CCc5ccccc5C4)ncnc32)[C@H](O)[C@@H]1O (some centres undefined) |  |  | 4.89 |  |  | 0.14 | 
29 | COc1ccc(CCNc2ncnc3c2ncn3C2O[C@H](CO)[C@@H](O)[C@H]2O)cc1OC (some centres undefined) | 2.7 |  | 1.45 |  |  |  | 
30 | OC[C@H]1O[C@@H](n2cnc3c(NCC4CCc5ccccc54)ncnc32)[C@H](O)[C@@H]1O (some centres undefined) | 0.24 |  | 3.81 |  |  |  | 
31 | OC[C@H]1OC(n2cnc3c(NCc4ccccn4)ncnc32)[C@H](O)[C@@H]1O (some centres undefined) | 0.62 |  | 0.32 |  |  |  | 
32 | OC[C@H]1OC(n2cnc3c(NCCc4ccccn4)ncnc32)[C@H](O)[C@@H]1O (some centres undefined) | 1 | < 1 | 0.39 |  |  |  | 
33 | OC[C@H]1OC(n2cnc3c(NC4CCCC[C@@H]4c4ccccc4)ncnc32)[C@H](O)[C@@H]1O (some centres undefined) | 0.19 |  | 2 |  |  |  | 
34 | COc1cccc(Nc2ncnc3c2ncn3C2O[C@H](CO)[C@@H](O)[C@H]2O)c1 (some centres undefined) | 0.26 | 2.59 | 1.32 |  |  |  | 
35 | OC[C@H]1O[C@@H](n2cnc3c(NCCCc4ccccc4)ncnc32)[C@H](O)[C@@H]1O | 0.33 |  | 2.75 |  |  |  | 
36 | Cc1ccc(Nc2ncnc3c2ncn3C2O[C@H](CO)[C@@H](O)[C@H]2O)cc1 (some centres undefined) | 1.3 | 2.79 | 3.28 |  |  |  | 
37 | OC[C@H]1OC(n2cnc3c(NCCc4ccc5ccccc5c4)ncnc32)[C@H](O)[C@@H]1O (some centres undefined) | 0.12 |  | 6.29 |  |  |  | 
38 | OC[C@H]1OC(n2cnc3c(NCCc4c[nH]c5ccccc45)ncnc32)[C@H](O)[C@@H]1O (some centres undefined) | 0.43 |  | 1.39 |  |  |  | 
39 | OC[C@H]1O[C@@H](n2cnc3c(NCc4ccc(Cl)cc4)ncnc32)[C@H](O)[C@@H]1O | 0.005 | 3.61 | 3.44 |  |  |  | 
40 | COc1cccc(CNc2ncnc3c2ncn3C2O[C@H](CO)[C@@H](O)[C@H]2O)c1 (some centres undefined) | 0.5 |  | 1.54 |  |  |  | 
41 | OC[C@H]1OC(n2cnc3c(NCc4ccc(Cl)cc4Cl)ncnc32)[C@H](O)[C@@H]1O (some centres undefined) | 0.05 |  | 8.86 |  |  |  | 
42 | OC[C@H]1O[C@@H](n2cnc3c(NCc4ccccc4Cl)ncnc32)[C@H](O)[C@@H]1O | 1.2 | 3.06 | 3.12 |  |  |  | 
43 | COc1cc(CCNc2ncnc3c2ncn3C2O[C@H](CO)[C@@H](O)[C@H]2O)cc(OC)c1OC (some centres undefined) | 5.2 |  | 1.54 |  |  |  | 
44 | COc1cc(CCCNc2ncnc3c2ncn3C2O[C@H](CO)[C@@H](O)[C@H]2O)cc(OC)c1OC (some centres undefined) | 0.056 |  | 2.05 |  |  |  | 
45 | COc1ccc(CCNc2ncnc3c2ncn3C2O[C@H](CO)[C@@H](O)[C@H]2O)cc1 (some centres undefined) | 0.29 | 3.49 | 1.93 |  |  |  | 
46 | OC[C@H]1OC(n2cnc3c(NC4CCCC[C@H]4c4ccccc4)ncnc32)[C@H](O)[C@@H]1O (some centres undefined) | 2.4 |  | 1.96 |  |  |  | 
47 | OC[C@H]1OC(n2cnc3c(NCc4ccccc4F)ncnc32)[C@H](O)[C@@H]1O (some centres undefined) | 0.57 | 3.08 | 1.57 |  |  |  | 
48 | OC[C@H]1OC(n2cnc3c(NCCc4nc5ccccc5[nH]4)ncnc32)[C@H](O)[C@@H]1O (some centres undefined) | 0.4 |  | 1.45 |  |  |  | 
49 | C[C@@H](Nc1ncnc2c1ncn2[C@@H]1O[C@H](CO)[C@@H](O)[C@H]1O)c1ccccc1 | 0.52 |  | 1.64 |  |  |  | 
50 | OC[C@H]1O[C@@H](n2cnc3c(NCc4ccccc4)ncnc32)[C@H](O)[C@@H]1O [N6-BENZYLADENOSINE] | 0.52 | 3.07 | 1.21 |  |  |  | 
51 | OC[C@H]1OC(n2cnc3c(NCCc4c[nH]cn4)ncnc32)[C@H](O)[C@@H]1O (some centres undefined) | 0.42 |  | 0.14 |  |  |  | 

Source: ChEMBL document CHEMBL1123294, “Dog coronary artery adenosine receptor: structure of the N6-aryl subregion” (J Med Chem, 1986)
